Our source for the EC50 values is US20240166652A1, “MODULATORS OF THE INTEGRATED STRESS PATHWAY” (Calico Life Sciences LLC, priority 2017, published 2024).

pEC50: −log10 of the molar value.

The experiment deals with ATF4 luciferase reporter in HEK293T cells. Briefly: ATF4-Luc assay (ATF4 luciferase reporter, tunicamycin-treated HEK293T cells). Format: cell-based, human. The settings on record: Homo sapiens, HEK-293T; HEK293T cells carrying the ATF4 luciferase reporter, 1 μg/mL tunicamycin, 7 hours. In general terms: A reporter such as luciferase makes a cellular process visible.
One may read the pEC50 as the negative decadic logarithm of the EC50, by convention in mol/L. On to `O=C(COc1cnc(OC2CCC2)nc1)NC12CCC(NC(=O)COc3ccc(Cl)c(F)c3)(CC1)[C@@H](O)C2` [Compound 636, 2-(4-chloro-3-fluorophenoxy)-N-[(2S)-4-(2-{[2-(cyclobutyloxy)pyrimidin-5-yl]oxy}acetamido)-2-hydroxybicyclo[2.2.2]octan-1-yl]acetamide], for which the negative-log EC50 (pEC50) is 6.30 to 6.60.
Consider `COc1ncc(OCC(=O)NC23CCC(NC(=O)COc4ccc(Cl)c(F)c4)(CC2)[C@@H](O)C3)cn1` [Compound 637, 2-(4-chloro-3-fluorophenoxy)-N-[(2S)-2-hydroxy-4-{2-[(2-methoxypyrimidin-5-yl)oxy]acetamido}bicyclo[2.2.2]octan-1-yl]acetamide], for which the pEC50 was > 8.00.
The result for `O=C(COc1ccc(Cl)c(F)c1)NC12CCC(NC(=O)COc3ccon3)(CC1)[C@@H](O)C2` [Compound 639, 2-(4-chloro-3-fluorophenoxy)-N-[(3S)-3-hydroxy-4-{2-[(1,2-oxazol-3-yl)oxy]acetamido}bicyclo[2.2.2]octan-1-yl]acetamide] reads 6.60 to 7.30; that for `O=C(COc1ccc(Cl)c(F)c1)NC12CCC(NC(=O)COc3ccc(Cl)cn3)(CC1)[C@@H](O)C2` [Compound 640, 2-(4-chloro-3-fluorophenoxy)-N-[(3S)-4-{2-[(5-chloropyridin-2-yl)oxy]acetamido}-3-hydroxybicyclo[2.2.2]octan-1-yl]acetamide], > 8.00; that for `CC(C)(CNC12CC(NC(=O)COc3ccc(Cl)c(F)c3)(C1)C2)Oc1ccc(Cl)cc1` [Compound 641, 2-(4-chloro-3-fluorophenoxy)-N-(3-{[2-(4-chlorophenoxy)-2-methylpropyl]amino}bicyclo[1.1.1]pentan-1-yl)acetamide], < 5.70.
Consider `O=C(COc1cnc(C(=O)O)nc1)NC12CCC(NC(=O)COc3ccc(Cl)c(F)c3)(CC1)[C@@H](O)C2` [Compound 642, 5-[2-({(3S)-4-[2-(4-chloro-3-fluorophenoxy)acetamido]-3-hydroxybicyclo[2.2.2]octan-1-yl}amino)-2-oxoethoxy]pyrimidine-2-carboxylic Acid], for which the pEC50 was < 5.70.
In the case of `O=C(COc1ccc(Cl)c(F)c1)NC12CCC(NC(=O)COc3ccc(Cl)c(F)c3)(CC1)C(CCO)C2` (centres unmarked) [Compound 643, N,N′-[2-(2-hydroxyethyl)bicyclo[2.2.2]octane-1,4-diyl]bis[2-(4-chloro-3-fluorophenoxy)acetamide]], the pEC50 is > 8.00.
Take `O=C(COc1ccc(Cl)c(F)c1)NC12CCC(NC(=O)COc3ccc(Cl)c(F)c3)(CC1)C(O)(CO)C2` (centres unmarked) [Compound 644, N,N′-[2-hydroxy-2-(hydroxymethyl)bicyclo[2.2.2]octane-1,4-diyl]bis[2-(4-chloro-3-fluorophenoxy)acetamide]]: the negative logarithm of the EC50 (pEC50) is > 8.00.
The result for `O=C(COc1ccn2nccc2c1)NC12CCC(NC(=O)COc3ccc(Cl)c(F)c3)(CC1)[C@@H](O)C2` [Compound 645, 2-(4-chloro-3-fluorophenoxy)-N-[(2S)-2-hydroxy-4-{2-[(pyrazolo[1,5-a]pyridin-5-yl)oxy]acetamido}bicyclo[2.2.2]octan-1-yl]acetamide] reads > 8.00; that for `O=C(Cn1cc(F)cnc1=O)NC12CCC(NC(=O)COc3ccc(Cl)c(F)c3)(CC1)[C@@H](O)C2` [Compound 646, 2-(4-chloro-3-fluorophenoxy)-N-{(2S)-4-[2-(5-fluoro-2-oxopyrimidin-1(2H)-yl)acetamido]-2-hydroxybicyclo[2.2.2]octan-1-yl}acetamide], 5.70 to 6.30; that for `O=C(COc1ccc(Cl)c(F)c1)NC12CCC(NCc3nc4cc(F)ccc4[nH]3)(CC1)C[C@@H]2O` [Compound 647, 2-(4-chloro-3-fluorophenoxy)-N-[(2S)-4-{[(5-fluoro-1H-benzimidazol-2-yl)methyl]amino}-2-hydroxybicyclo[2.2.2]octan-1-yl]acetamide], 6.60 to 7.30.
On to `O=C(COc1ccc(Cl)c(F)c1)NC12CCC(NCc3nc4cc(F)c(F)cc4[nH]3)(CC1)C[C@@H]2O` [Compound 648, 2-(4-chloro-3-fluorophenoxy)-N-[(2S)-4-{[(5,6-difluoro-1H-benzimidazol-2-yl)methyl]amino}-2-hydroxybicyclo[2.2.2]octan-1-yl]acetamide], for which the pEC50 was 7.30 to 8.00.
For `O=C(COc1ccc(Cl)c(F)c1)NC12CCC(NC(=O)CCOc3ccc(Cl)c(F)c3)(CC1)[C@@H](O)C2` [Compound 650, 3-(4-chloro-3-fluorophenoxy)-N-{(2S)-4-[2-(4-chloro-3-fluorophenoxy)acetamido]-2-hydroxybicyclo[2.2.2]octan-1-yl}propanamide], the pEC50 is > 8.00.
`COc1ccc(OCC(=O)NC23CCC(NC(=O)COc4ccc(Cl)c(F)c4)(CC2)[C@@H](O)C3)cn1` [Compound 651, 2-(4-chloro-3-fluorophenoxy)-N-[(2S)-2-hydroxy-4-{2-[(6-methoxypyridin-3-yl)oxy]acetamido}bicyclo[2.2.2]octan-1-yl]acetamide]: the pEC50 is > 8.00.
Turning to `O=C(COc1ccc(Cl)c(F)c1)N[C@H]1C(=O)C[C@@]2(NC(=O)COc3ccc(Cl)c(F)c3)CC[C@@H]1C2` [Compound 652, N,N′-[(1R,4R,5R)-3-oxobicyclo[3.2.1]octane-1,4-diyl]bis[2-(4-chloro-3-fluorophenoxy)acetamide]], the pEC50 was 7.30 to 8.00.
Regarding `O=C(COc1ccc(Cl)c(F)c1)NC12CCC(NC(=O)COc3ccc(Cl)c(F)c3)(CC1)C1(CO1)C2` (centres unmarked) [Compound 654, N,N′-(spiro[bicyclo[2.2.2]octane-2,2′-oxirane]-1,4-diyl)bis[2-(4-chloro-3-fluorophenoxy)acetamide]], the pEC50 is > 8.00.
The result for `COc1ncc(OCC(=O)NC23CCC(NC(=O)COc4ccc(Cl)c(F)c4)(CC2)C(=O)C3)cn1` [Compound 655, 2-(4-chloro-3-fluorophenoxy)-N-(4-{2-[(2-methoxypyrimidin-5-yl)oxy]acetamido}-2-oxobicyclo[2.2.2]octan-1-yl)acetamide] reads 7.30 to 8.00; that for `CN(CC(=O)NC12CCC(NC(=O)COc3ccc(Cl)c(F)c3)(CC1)C[C@@H]2O)c1ccc(Cl)cc1` [Compound 656, 2-(4-chloro-3-fluorophenoxy)-N-[(3S)-4-{2-[(4-chlorophenyl)(methyl)amino]acetamido}-3-hydroxybicyclo[2.2.2]octan-1-yl]acetamide], 7.30 to 8.00; that for `O=C(COc1ccc(Cl)c(F)c1)NC12CCC(NC(=O)CNc3ccc(Cl)cc3)(CC1)[C@@H](O)C2` [Compound 657, 2-(4-chloroanilino)-N-{(2S)-4-[2-(4-chloro-3-fluorophenoxy)acetamido]-2-hydroxybicyclo[2.2.2]octan-1-yl}acetamide], 6.60 to 7.30.
Regarding `Cn1cc(OCC(=O)NC23CCC(NC(=O)COc4ccc(Cl)c(F)c4)(CC2)C[C@@H]3O)cn1` [Compound 658, 2-(4-chloro-3-fluorophenoxy)-N-[(3S)-3-hydroxy-4-{2-[(1-methyl-1H-pyrazol-4-yl)oxy]acetamido}bicyclo[2.2.2]octan-1-yl]acetamide], the negative-log EC50 (pEC50) is 6.60 to 7.30.
In the case of `O=C(COc1ccc(Cl)c(F)c1)NC12CCC(NC(=O)COc3cccc(F)c3)(CC1)[C@@H](O)C2` [Compound 659, 2-(4-chloro-3-fluorophenoxy)-N-{(3S)-4-[2-(3-fluorophenoxy)acetamido]-3-hydroxybicyclo[2.2.2]octan-1-yl}acetamide], the pEC50 is > 8.00.
Regarding `O=C(COc1ccc(Cl)c(F)c1)NC12CCC(NC(=O)COc3cccc(Cl)c3)(CC1)[C@@H](O)C2` [Compound 660, 2-(4-chloro-3-fluorophenoxy)-N-{(3S)-4-[2-(3-chlorophenoxy)acetamido]-3-hydroxybicyclo[2.2.2]octan-1-yl}acetamide], the pEC50 is > 8.00.
With `Cn1cc(OCC(=O)NC23CCC(NC(=O)COc4ccccn4)(CC2)C[C@@H]3O)cn1` [Compound 661, N-[(2S)-2-hydroxy-4-{2-[(pyridin-2-yl)oxy]acetamido}bicyclo[2.2.2]octan-1-yl]-2-[(1-methyl-1H-pyrazol-4-yl)oxy]acetamide], the pEC50 was < 5.70.
As for `O=C(COc1ccccn1)NC12CCC(NC(=O)COc3cccc(Cl)c3)(CC1)[C@@H](O)C2` [Compound 662, 2-(3-chlorophenoxy)-N-[(2S)-2-hydroxy-4-{2-[(pyridin-2-yl)oxy]acetamido}bicyclo[2.2.2]octan-1-yl]acetamide], the pEC50 is 6.30 to 6.60.
Regarding `O=C(COc1ccccn1)NC12CCC(NC(=O)COc3ccc(Cl)c(F)c3)(CC1)[C@@H](O)C2` [Compound 663, 2-(4-chloro-3-fluorophenoxy)-N-[(2S)-2-hydroxy-4-{2-[(pyridin-2-yl)oxy]acetamido}bicyclo[2.2.2]octan-1-yl]acetamide], the pEC50 is 7.30 to 8.00.
For `Cc1cc(OCC(=O)NC23CCC(NC(=O)COc4ccc(Cl)c(Cl)c4)(CC2)[C@@H](O)C3)no1` [Compound 664, 2-(3,4-dichlorophenoxy)-N-[(2S)-2-hydroxy-4-{2-[(5-methyl-1,2-oxazol-3-yl)oxy]acetamido}bicyclo[2.2.2]octan-1-yl]acetamide] the value was 7.30 to 8.00; for `Cc1cc(OCC(=O)NC23CCC(NC(=O)COc4ccc(Cl)c(F)c4)(CC2)[C@@H](O)C3)no1` [Compound 665, 2-(4-chloro-3-fluorophenoxy)-N-[(2S)-2-hydroxy-4-{2-[(5-methyl-1,2-oxazol-3-yl)oxy]acetamido}bicyclo[2.2.2]octan-1-yl]acetamide], 7.30 to 8.00.
For `COc1cc(OCC(=O)NC23CCC(NC(=O)COc4ccc(Cl)c(F)c4)(CC2)[C@@H](O)C3)ncn1` [Compound 666, 2-(4-chloro-3-fluorophenoxy)-N-[(2S)-2-hydroxy-4-{2-[(6-methoxypyrimidin-4-yl)oxy]acetamido}bicyclo[2.2.2]octan-1-yl]acetamide], the pEC50 was 6.60 to 7.30.
On to `COc1ccc(OCC(=O)NC23CCC(NC(=O)COc4ccc(Cl)c(F)c4)(CC2)[C@@H](O)C3)nc1` [Compound 667, 2-(4-chloro-3-fluorophenoxy)-N-[(2S)-2-hydroxy-4-{2-[(5-methoxypyridin-2-yl)oxy]acetamido}bicyclo[2.2.2]octan-1-yl]acetamide], for which the pEC50 is < 5.70.
